Assay results as given in PMC7438494 (Communications Biology, 2020).
Read-outs that look alike come from different tables or passages of the source.

Molecular target: human ATP synthase (Homo sapiens, UniProt P00846+P05496)
Test: biochemical
Assay type: biochemical
Settings: Human Mito
[1] = 3rd exp (12-20-18), BDQ in DMSO, Bedaquiline 0.05 μM, 60 min
[2] = 4th exp (12-12-28), repeated point, Bedaquiline 5e-6 μM, 60 min
[3] = 4th exp (12-12-28), repeated point, Bedaquiline 5e-5 μM, 60 min

SMILES: COc1nc2ccc(Br)cc2cc1[C@@H](c1ccccc1)[C@@](O)(CCN(C)C)c1cccc2ccccc12 [BDQ, Bedaquiline]
- Cyanide sensitive (2nd exp (12-17-18), Bedaquiline 0.2 μM, 60 min): 5.1889 nmol/min/mg
- activity at 0.2 µM (2nd exp (12-17-18), Bedaquiline 0.2 μM, 60 min, read-out: % activity): 59.9%
- Cyanide sensitive (2nd exp (12-17-18), Bedaquiline 0.5 μM, 60 min): 5.024 nmol/min/mg
- activity at 0.5 µM (2nd exp (12-17-18), Bedaquiline 0.5 μM, 60 min, read-out: % activity): 58%
- Cyanide sensitive (2nd exp (12-17-18), Bedaquiline 0.65 μM, 60 min): 2.666 nmol/min/mg
- activity at 0.65 µM (2nd exp (12-17-18), Bedaquiline 0.65 μM, 60 min, read-out: % activity): 30.8%
- Cyanide sensitive (2nd exp (12-17-18), Bedaquiline 0.85 μM, 60 min): 2.868 nmol/min/mg
- activity at 0.85 µM (2nd exp (12-17-18), Bedaquiline 0.85 μM, 60 min, read-out: % activity): 33.1%
- Cyanide sensitive (2nd exp (12-17-18), Bedaquiline 2 μM, 60 min): 0.0982 nmol/min/mg
- activity at 2 µM (2nd exp (12-17-18), Bedaquiline 2 μM, 60 min, read-out: % activity): 1.13%
- Cyanide sensitive (2nd exp (12-17-18), Bedaquiline 5 μM, 60 min): -0.8746 nmol/min/mg
- activity at 5 µM (2nd exp (12-17-18), Bedaquiline 5 μM, 60 min, read-out: % activity): -10.1%
- activity at 0.005 µM (2 nd exp (18_12_17), BDQ 0.005 uM, read-out: Cyanide sensitive % activity): 43.8%
- activity at 0.1 µM (2 nd exp (18_12_17), BDQ 0.1 uM, read-out: Cyanide sensitive % activity): 62%
- activity at 0.2 µM (2 nd exp (18_12_17), BDQ 0.2 uM, read-out: Cyanide sensitive % activity): 59.9%
- activity at 0.5 µM (2 nd exp (18_12_17), BDQ 0.5 uM, read-out: Cyanide sensitive % activity): 58%
- activity at 0.65 µM (2 nd exp (18_12_17), BDQ 0.65 uM, read-out: Cyanide sensitive % activity): 30.8%
- activity at 0.85 µM (2 nd exp (18_12_17), BDQ 0.85 uM, read-out: Cyanide sensitive % activity): 33.1%
- activity at 2 µM (2 nd exp (18_12_17), BDQ 2 uM, read-out: Cyanide sensitive % activity): 1.13%
- Cyanide sensitive (3rd exp (12-20-18), BDQ in DMSO, Bedaquiline 0.0005 μM, 60 min): 7.6746 nmol/min/mg
- activity at 0.0005 µM (3rd exp (12-20-18), BDQ in DMSO, Bedaquiline 0.0005 μM, 60 min, read-out: % activity): 81.5%
- Cyanide sensitive (3rd exp (12-20-18), BDQ in DMSO, Bedaquiline 0.005 μM, 60 min): 8.333 nmol/min/mg
- activity at 0.005 µM (3rd exp (12-20-18), BDQ in DMSO, Bedaquiline 0.005 μM, 60 min, read-out: % activity): 88.5%
- Cyanide sensitive [1]: 6.758 nmol/min/mg
- activity at 0.05 µM [1]: 71.8%
- Cyanide sensitive (3rd exp (12-20-18), BDQ in DMSO, Bedaquiline 0.1 μM, 60 min): 8.103 nmol/min/mg
- activity at 0.1 µM (3rd exp (12-20-18), BDQ in DMSO, Bedaquiline 0.1 μM, 60 min, read-out: % activity): 86%
- Cyanide sensitive (3rd exp (12-20-18), BDQ in DMSO, Bedaquiline 0.2 μM, 60 min): 5.599 nmol/min/mg
- activity at 0.2 µM (3rd exp (12-20-18), BDQ in DMSO, Bedaquiline 0.2 μM, 60 min, read-out: % activity): 59.5%
- Cyanide sensitive (3rd exp (12-20-18), BDQ in DMSO, Bedaquiline 0.5 μM, 60 min): 3.146 nmol/min/mg
- activity at 0.5 µM (3rd exp (12-20-18), BDQ in DMSO, Bedaquiline 0.5 μM, 60 min, read-out: % activity): 33.4%
- Cyanide sensitive (3rd exp (12-20-18), BDQ in DMSO, Bedaquiline 0.65 μM, 60 min): 3.762 nmol/min/mg
- activity at 0.65 µM (3rd exp (12-20-18), BDQ in DMSO, Bedaquiline 0.65 μM, 60 min, read-out: % activity): 40%
- Cyanide sensitive (3rd exp (12-20-18), BDQ in DMSO, Bedaquiline 0.85 μM, 60 min): 3.062 nmol/min/mg
- activity at 0.85 µM (3rd exp (12-20-18), BDQ in DMSO, Bedaquiline 0.85 μM, 60 min, read-out: % activity): 32.5%
- Cyanide sensitive (3rd exp (12-20-18), BDQ in DMSO, Bedaquiline 1 μM, 60 min): -0.07798 nmol/min/mg
- activity at 1 µM (3rd exp (12-20-18), BDQ in DMSO, Bedaquiline 1 μM, 60 min, read-out: % activity): -0.828%
- Cyanide sensitive (3rd exp (12-20-18), BDQ in DMSO, Bedaquiline 2 μM, 60 min): 0.1555 nmol/min/mg
- activity at 2 µM (3rd exp (12-20-18), BDQ in DMSO, Bedaquiline 2 μM, 60 min, read-out: % activity): 1.65%
- Cyanide sensitive (3rd exp (12-20-18), BDQ in DMSO, Bedaquiline 5 μM, 60 min): -0.3777 nmol/min/mg
- activity at 5 µM (3rd exp (12-20-18), BDQ in DMSO, Bedaquiline 5 μM, 60 min, read-out: % activity): -4.01%
- activity at 0.0005 µM (3rd exp (18_12_20), BDQ 0.0005 uM, read-out: Cyanide sensitive % activity): 81.5%
- activity at 0.005 µM (3rd exp (18_12_20), BDQ 0.005 uM, read-out: Cyanide sensitive % activity): 88.5%
- activity at 0.2 µM (3rd exp (18_12_20), BDQ 0.2 uM, read-out: Cyanide sensitive % activity): 59.5%
- activity at 0.5 µM (3rd exp (18_12_20), BDQ 0.5 uM, read-out: Cyanide sensitive % activity): 33.4%
- activity at 0.65 µM (3rd exp (18_12_20), BDQ 0.65 uM, read-out: Cyanide sensitive % activity): 40%
- activity at 0.85 µM (3rd exp (18_12_20), BDQ 0.85 uM, read-out: Cyanide sensitive % activity): 32.5%
- activity at 1 µM (3rd exp (18_12_20), BDQ 1 uM, read-out: Cyanide sensitive % activity): -0.84%
- activity at 2 µM (3rd exp (18_12_20), BDQ 2 uM, read-out: Cyanide sensitive % activity): 1.68%
- activity at 5 µM (3rd exp (18_12_20), BDQ 5 uM, read-out: Cyanide sensitive % activity): -4.13%
- Cyanide sensitive (4th exp (12-12-28), BDQ in DMSO, Bedaquiline 5e-6 μM, 60 min): 6.055 nmol/min/mg
- Cyanide sensitive (4th exp (12-12-28), BDQ in DMSO, Bedaquiline 5e-5 μM, 60 min): 5.641 nmol/min/mg
- Cyanide sensitive (4th exp (12-12-28), BDQ in DMSO, Bedaquiline 0.0005 μM, 60 min): 4.664 nmol/min/mg
- activity at 0.0005 µM (4th exp (12-12-28), BDQ in DMSO, Bedaquiline 0.0005 μM, 60 min, read-out: % activity): 52.7%
- Cyanide sensitive (4th exp (12-12-28), BDQ in DMSO, Bedaquiline 0.005 μM, 60 min): 4.551 nmol/min/mg
- activity at 0.005 µM (4th exp (12-12-28), BDQ in DMSO, Bedaquiline 0.005 μM, 60 min, read-out: % activity): 51.4%
- Cyanide sensitive (4th exp (12-12-28), BDQ in DMSO, Bedaquiline 0.1 μM, 60 min): 6.3 nmol/min/mg
- activity at 0.1 µM (4th exp (12-12-28), BDQ in DMSO, Bedaquiline 0.1 μM, 60 min, read-out: % activity): 71.2%
- Cyanide sensitive (4th exp (12-12-28), BDQ in DMSO, Bedaquiline 0.2 μM, 60 min): 4.408 nmol/min/mg
- activity at 0.2 µM (4th exp (12-12-28), BDQ in DMSO, Bedaquiline 0.2 μM, 60 min, read-out: % activity): 49.8%
- Cyanide sensitive (4th exp (12-12-28), BDQ in DMSO, Bedaquiline 0.5 μM, 60 min): 4.526 nmol/min/mg
- activity at 0.5 µM (4th exp (12-12-28), BDQ in DMSO, Bedaquiline 0.5 μM, 60 min, read-out: % activity): 51.2%
- Cyanide sensitive (4th exp (12-12-28), BDQ in DMSO, Bedaquiline 0.65 μM, 60 min): 3.3225 nmol/min/mg
- activity at 0.65 µM (4th exp (12-12-28), BDQ in DMSO, Bedaquiline 0.65 μM, 60 min, read-out: % activity): 37.6%
- Cyanide sensitive (4th exp (12-12-28), BDQ in DMSO, Bedaquiline 1 μM, 60 min): 0.7592 nmol/min/mg
- activity at 1 µM (4th exp (12-12-28), BDQ in DMSO, Bedaquiline 1 μM, 60 min, read-out: % activity): 8.58%
- Cyanide sensitive (4th exp (12-12-28), BDQ in DMSO, Bedaquiline 2 μM, 60 min): 0.2448 nmol/min/mg
- activity at 2 µM (4th exp (12-12-28), BDQ in DMSO, Bedaquiline 2 μM, 60 min, read-out: % activity): 2.77%
- Cyanide sensitive (4th exp (12-12-28), BDQ in DMSO, Bedaquiline 5 μM, 60 min): -0.2191 nmol/min/mg
- activity at 5 µM (4th exp (12-12-28), BDQ in DMSO, Bedaquiline 5 μM, 60 min, read-out: % activity): -2.48%
- Cyanide sensitive (4th exp (12-12-28), BDQ in DMSO, Bedaquiline 10 μM, 60 min): -0.1822 nmol/min/mg
- activity at 10 µM (4th exp (12-12-28), BDQ in DMSO, Bedaquiline 10 μM, 60 min, read-out: % activity): -2.06%
- Repeted points [2]: 6.965 nmol/min/mg
- Repeted points % activity [2]: 78.7332%
- Repeted points [3]: 6.5997 nmol/min/mg
- Repeted points % activity [3]: 74.6041%
- Repeted points (4th exp (12-12-28), repeated point, Bedaquiline 1 μM, 60 min): 0.7668 nmol/min/mg
- activity at 1 µM (4th exp (12-12-28), repeated point, Bedaquiline 1 μM, 60 min, read-out: Repeted points % activity): 8.67%
- activity at 10 µM (4th exp (18_12_26) duplicate, BDQ 10 uM, read-out: Cyanide sensitive % activity): -2.1%
- activity at 0.1 µM (4th exp (18_12_26), BDQ 0.1 uM, read-out: Cyanide sensitive % activity): 71.2%
- activity at 0.2 µM (4th exp (18_12_26), BDQ 0.2 uM, read-out: Cyanide sensitive % activity): 49.8%
- activity at 0.5 µM (4th exp (18_12_26), BDQ 0.5 uM, read-out: Cyanide sensitive % activity): 51.2%
- activity at 0.65 µM (4th exp (18_12_26), BDQ 0.65 uM, read-out: Cyanide sensitive % activity): 37.6%
